Results from US20070099890A1, “Novel cephalosporin derivatives, its pharmaceutically acceptable salts and manufacturing process thereof” (priority 2003, published 2007).
Values after ≈ are worked out from the molar mass of the structure shown. Like-named read-outs stand apart in the source and are kept apart here. Blank lines part the entries; values can stand above or below the compound they belong to.

Assays:
Assay in all cases: In vitro antibacterial activity test (2-fold agar dilution MIC)
Assay type in all cases: cell-based
Conditions in all cases: for MIC: read-out: Minimum inhibitory concentrations (MICs)
[1] = tested on: Staphylococcus aureus 004 (MRSA)
Protocol: (§1) The in vitro antibacterial activity of the compounds prepared in the Examples of the invention was determined as follows: after incubation of the corresponding bacterium for 18 h at 37° C., minimum inhibitory concentrations (MICs, μg/mL) were determined by the 2-fold agar dilution method with Mueller-Hinton Agar.

[2] = tested on: Staphylococcus aureus 010 (MRSA)
Protocol: as §1

[3] = tested on: Staphylococcus aureus 009 (MRSA)
Protocol: as §1

[4] = tested on: Staphylococcus aureus 001 (MRSA)
Protocol: as §1

[5] = tested on: Staphylococcus aureus 008 (MRSA)
Protocol: as §1

[6] = tested on: Staphylococcus aureus 007 (MRSA)
Protocol: as §1

[7] = tested on: Staphylococcus aureus 003 (MRSA)
Protocol: as §1

[8] = tested on: Staphylococcus aureus 006 (MRSA)
Protocol: as §1

[9] = tested on: Staphylococcus aureus 002 (MRSA)
Protocol: as §1

[10] = tested on: Staphylococcus aureus 005 (MRSA)
Protocol: as §1

[11] = Staphylococcus aureus, MRSA, 18 h
[12] = MRSA Staphylococcus aureus 004, 2-fold agar dilution, Mueller-Hinton Agar, 18 h at 37° C.
[13] = MRSA Staphylococcus aureus 010, 2-fold agar dilution, Mueller-Hinton Agar, 18 h at 37° C.
[14] = MRSA Staphylococcus aureus 009, 2-fold agar dilution, Mueller-Hinton Agar, 18 h at 37° C.
[15] = MRSA Staphylococcus aureus 001, 2-fold agar dilution, Mueller-Hinton Agar, 18 h at 37° C.
[16] = MRSA Staphylococcus aureus 008, 2-fold agar dilution, Mueller-Hinton Agar, 18 h at 37° C.
[17] = MRSA Staphylococcus aureus 007, 2-fold agar dilution, Mueller-Hinton Agar, 18 h at 37° C.
[18] = MRSA Staphylococcus aureus 003, 2-fold agar dilution, Mueller-Hinton Agar, 18 h at 37° C.
[19] = MRSA Staphylococcus aureus 006, 2-fold agar dilution, Mueller-Hinton Agar, 18 h at 37° C.
[20] = MRSA Staphylococcus aureus 002, 2-fold agar dilution, Mueller-Hinton Agar, 18 h at 37° C.
[21] = MRSA Staphylococcus aureus 005, 2-fold agar dilution, Mueller-Hinton Agar, 18 h at 37° C.

Compound: CN[C@H](CC(C)C)C(=O)N[C@H]1C(=O)N[C@@H](CC(N)=O)C(=O)N[C@H]2C(=O)N[C@H]3C(=O)N[C@H](C(=O)N[C@H](C(=O)O)c4cc(O)cc(O)c4-c4cc3ccc4O)[C@H](O)c3ccc(c(Cl)c3)Oc3cc2cc(c3O[C@@H]2O[C@H](CO)[C@@H](O)[C@H](O)[C@H]2O[C@H]2C[C@](C)(N)[C@H](O)[C@H](C)O2)Oc2ccc(cc2Cl)[C@H]1O [vancomycin]
MIC [1, 11]: 0.781 µg/mL (≈ 0.539 µM) | MIC [2, 11]: 0.781 µg/mL (≈ 0.539 µM) | MIC [3, 11]: 0.781 µg/mL (≈ 0.539 µM) | MIC [4, 11]: 3.12 µg/mL (≈ 2.16 µM) | MIC [5, 11]: 0.781 µg/mL (≈ 0.539 µM) | MIC [6, 11]: 0.781 µg/mL (≈ 0.539 µM) | MIC [7, 11]: 0.781 µg/mL (≈ 0.539 µM) | MIC [8, 11]: 0.781 µg/mL (≈ 0.539 µM) | MIC [9, 11]: 1.56 µg/mL (≈ 1.08 µM) | MIC [10, 11]: 0.781 µg/mL (≈ 0.539 µM)

MIC [1, 12]: > 10 µg/mL | MIC [2, 13]: 6.25 µg/mL (≈ 13.7 µM) | MIC [3, 14]: 6.25 µg/mL (≈ 13.7 µM) | MIC [4, 15]: 25 µg/mL (≈ 54.9 µM) | MIC [5, 16]: 1.56 µg/mL (≈ 3.43 µM) | MIC [6, 17]: 1.56 µg/mL (≈ 3.43 µM) | MIC [7, 18]: > 100 µg/mL | MIC [8, 19]: 1.56 µg/mL (≈ 3.43 µM) | MIC [9, 20]: 3.12 µg/mL (≈ 6.86 µM) | MIC [10, 21]: 6.25 µg/mL (≈ 13.7 µM)
Compound: CO/N=C(\C(=O)N[C@@H]1C(=O)N2C(C(=O)O)=C(COC(C)=O)CS[C@H]12)c1csc(N)n1 [cefotaxime]

Minimum inhibitory concentrations (MICs) [1, 12]: 3.125 µg/mL (≈ 5.22 µM) | Minimum inhibitory concentrations (MICs) [2, 13]: 0.195 µg/mL (≈ 0.326 µM) | Minimum inhibitory concentrations (MICs) [3, 14]: 0.195 µg/mL (≈ 0.326 µM) | Minimum inhibitory concentrations (MICs) [4, 15]: 3.125 µg/mL (≈ 5.22 µM) | Minimum inhibitory concentrations (MICs) [5, 16]: 0.195 µg/mL (≈ 0.326 µM) | Minimum inhibitory concentrations (MICs) [6, 17]: <0.002 µg/mL | Minimum inhibitory concentrations (MICs) [7, 18]: 6.250 µg/mL (≈ 10.4 µM) | Minimum inhibitory concentrations (MICs) [8, 19]: 0.004 µg/mL (≈ 0.00668 µM) | Minimum inhibitory concentrations (MICs) [9, 20]: 0.002 µg/mL (≈ 0.00334 µM) | Minimum inhibitory concentrations (MICs) [10, 21]: 0.098 µg/mL (≈ 0.164 µM)
Compound: O=C(CSc1ccccc1)N[C@@H]1C(=O)N2C(C(=O)O)=C(C=Cc3cc(-c4ccc(Br)cc4)no3)CS[C@H]12 [Compound 30]
